Measurements taken from US20060210479A1 (Dow Global Technologies Inc., priority 2004, published 2006).
Like-named read-outs stand apart in the source and are kept apart here.

Assays:
[1] = Solubility of chelate compounds
[2] = tested on: HEK293 cells; test: Adsorption of chelate compounds to cells (HPLC and mass spectrometry); type: cell-based, human; conditions: for Adsorption HEK293: 50 µM chelate compound, 0, 30 and 90 minutes at 37 °C, % adsorbed relative to time zero
Text: (§1) As a prerequisite for the understanding of the functional attributes of Tb-PCTMB and Eu-QCTME for diagnostics and therapeutic purposes, and for other uses, it is useful to synthesize a series of chelate compounds that contain structural elements of both PCTMB and QCTME and test these compounds for adsorption and permeability to different cell lines. The first approach was to test for adsorption to a normal cell line (HEK293) and to two epithelial cancer cell lines (LNCaP and Caco-2). The second approach, described in this example, involves testing only the compounds that adsorbed in the cancer cell lines and not in the normal cell lines for permeability. Adsorption and permeability of the compounds to epithelial cancer cell lines and a normal cell line was measured through the detection of the compound by HPLC and mass spectrometry.
(§2) Cell cultures. LNCaP cell line is a human prostate carcinoma. Cells were grown in RPMI 1640 Medium supplemented 10% FBS, 2 mM L-glutamine, glucose (2 g/L) augmented with gentamicin (50 μg/mL), penicillin/streptomycin (100 IU/mL/100 μg/mL) and amphotericin B (2.5 μg/mL). Caco-2 cell line is a human colorectal carcinoma. These cells were grown in Eagle's Minimum Essential Medium supplemented with 20% FBS, Earle's BSS, 2 mM L-glutamine, 1.0 mM sodium pyruvate, 0.1 mM nonessential amino acids augmented with gentamicin (50 μg/mL), penicillin/streptomycin (100 IU/mL/100 μg/mL), and amphotericin B (2.5 μg/mL). The human kidney transformed cells HEK293 were grown in Eagle's Minimum Essential Medium (EMEM) supplemented with 10% (v/v) heat-inactivated fetal bovine serum, sodium pyruvate, nonessential amino acids and antibiotics in a humidified 5% CO2 atmosphere at 37° C. Medium and supplements were purchased from Gibco BRL (Grand Island, N.Y.) and all cell lines were obtained from ATCC.
(§3) Detection of chelate compounds for the determination of adsorption. Cells were grown to confluence in T-150 flasks (about 2×10^7 cells). Before treating with chelate compounds, cells were rinsed twice with warm 10 mM HEPES (Gibco BRL, Grand Island N.Y.), removed from the flask, and transferred to a 50-mL conical tube and centrifuged (400×g) for 5 minutes. The resulting cells were treated with individual chelate compounds with 50 µM of chelate compounds in 10 mM HEPES, pH 7.4, 5 mM KCl, 150 mM NaCl, 0.7 mM NaH2PO4 for 0, 30, and 90 minutes at 37 ° C. After treatment, cells were pelleted by centrifugation and the resulting solution was analyzed by a combination of HPLC and mass spectrometry.

[3] = tested on: Caco-2 cells; test: as above; type: cell-based, human; conditions: for Adsorption Caco-2: 50 µM chelate compound, 0, 30 and 90 minutes at 37 °C, % adsorbed relative to time zero
Text: as §1, §2, §3

[4] = tested on: LNCaP cells; test: as above; type: cell-based, human; conditions: for Adsorption LNCaP: 50 µM chelate compound, 0, 30 and 90 minutes at 37 °C, % adsorbed relative to time zero
Text: as §1, §2, §3

With Cc1c(CN(C)C)c(C)c(CN(C)C)c(C)c1CN(C)C [Compound 16, (3,5-Bis-dimethylaminomethyl-2,4,6-trimethyl-benzyl)-dimethyl-amine] the solubility ([1]; <5% methanol, ethanol, or DMSO) was > 10 mM, the “Adsorption HEK293” value [2] was 0 (0 = 0-10%) and the “Adsorption Caco-2” value [3] was 0 (0 = 0-10%). For the same molecule, the “Adsorption LNCaP” value [4] was 0 (0 = 0-10%).
For CCN(CC)CCCN(CC)CCCN(CC)CC [Compound 23, N-(3-Diethylamino-propyl)-N,N′,N′-triethyl-propane-1,3-diamine], the solubility ([1]; <5% methanol, ethanol, or DMSO) was > 10 mM, the “adsorption in normal cells (HEK293)” value [2] was “adsorbed” and the “Adsorption HEK293” value [2] was “+ (+ = 11-20%)”. The “adsorption in carcinoma cell line Caco-2” value [3] was “adsorbed”, the “Adsorption Caco-2” value [3] was “++ (++ = 21-40%)” and the “adsorption in carcinoma cell line LNCaP” value [4] was “adsorbed”. For the same molecule, the “Adsorption LNCaP” value [4] was “+ (+ = 11-20%)”.
With COP(=O)(O)Cc1cccc(CP(=O)(O)OC)n1 [Compound 4, [6-(Hydroxy-methoxy-phosphorylmethyl)-pyridin-2-ylmethyl]-phosphonic acid monomethyl ester] the solubility ([1]; <5% methanol, ethanol, or DMSO) was > 10 mM, the “adsorption in normal cells (HEK293)” value [2] was “adsorbed” and the “Adsorption HEK293” value [2] was “++ (++ = 21-40%)”. For the same molecule, the “adsorption in carcinoma cell line Caco-2” value [3] was “adsorbed”, the “Adsorption Caco-2” value [3] was “++ (++ = 21-40%)” and the “adsorption in carcinoma cell line LNCaP” value [4] was “adsorbed”. For the same molecule, the “Adsorption LNCaP” value [4] was “++ (++ = 21-40%)”.
With CCOP(=O)(O)Cc1c(C)c(CP(=O)(O)OCC)c(C)c(CP(=O)(O)OCC)c1C [Compound 11, [3,5-Bis-(Ethoxy-hydroxy-phosphorylmethyl)-2,4,6-trimethyl-benzyl]-phosphonic acid monoethyl ester] the solubility ([1]; <5% methanol, ethanol, or DMSO) was > 10 mM, the “Adsorption HEK293” value [2] was 0 (0 = 0-10%) and the “Adsorption Caco-2” value [3] was 0 (0 = 0-10%). The “Adsorption LNCaP” value [4] was 0 (0 = 0-10%).
For COP(=O)(O)Cc1cc(CP(=O)(O)OC)cc(CP(=O)(O)OC)c1 [Compound 7, [3,5-Bis-(Methoxy-hydroxy-phosphorylmethyl)-benzyl]-phosphonic acid monomethyl ester], the solubility ([1]; <5% methanol, ethanol, or DMSO) was > 10 mM, the “adsorption in normal cells (HEK293)” value [2] was “did not adsorb” and the “Adsorption HEK293” value [2] was 0 (0 = 0-10%). The “adsorption in carcinoma cell line Caco-2” value [3] was “did not adsorb”, the “Adsorption Caco-2” value [3] was 0 (0 = 0-10%) and the “adsorption in carcinoma cell line LNCaP” value [4] was “did not adsorb”. For the same molecule, the “Adsorption LNCaP” value [4] was 0 (0 = 0-10%).
With COP(=O)(O)Cc1c(C)c(CP(=O)(O)OC)c(C)c(CP(=O)(O)OC)c1C [Compound 10, [3,5-Bis-(Methoxy-hydroxy-phosphorylmethyl)-2,4,6-trimethyl-benzyl]-phosphonic acid monomethyl ester] the solubility ([1]; <5% methanol, ethanol, or DMSO) was > 10 mM, the “adsorption in normal cells (HEK293)” value [2] was “did not adsorb” and the “Adsorption HEK293” value [2] was 0 (0 = 0-10%). For the same molecule, the “adsorption in carcinoma cell line Caco-2” value [3] was “did not adsorb”, the “Adsorption Caco-2” value [3] was 0 (0 = 0-10%) and the “adsorption in carcinoma cell line LNCaP” value [4] was “did not adsorb”. The “Adsorption LNCaP” value [4] was 0 (0 = 0-10%).
For COP(=O)(O)Cc1ccc2cc(C)ccc2n1 [Compound 1], the solubility ([1]; <5% methanol, ethanol, or DMSO) was > 10 mM, the “adsorption in normal cells (HEK293)” value [2] was “did not adsorb” and the “Adsorption HEK293” value [2] was 0 (0 = 0-10%). For the same molecule, the “adsorption in carcinoma cell line Caco-2” value [3] was “did not adsorb”, the “Adsorption Caco-2” value [3] was 0 (0 = 0-10%) and the “adsorption in carcinoma cell line LNCaP” value [4] was “did not adsorb”. The “Adsorption LNCaP” value [4] was 0 (0 = 0-10%).
For CCOP(=O)(O)Cc1cccc(CP(=O)(O)OCC)n1 [Compound 5, [6-(Hydroxy-ethoxy-phosphorylmethyl)-pyridin-2-ylmethyl]-phosphonic acid monoethyl ester], the solubility ([1]; <5% methanol, ethanol, or DMSO) was > 10 mM, the “Adsorption HEK293” value [2] was “+ (+ = 11-20%)” and the “Adsorption Caco-2” value [3] was 0 (0 = 0-10%). The “Adsorption LNCaP” value [4] was “+ (+ = 11-20%)”.
For CCCCOP(=O)(O)Cc1cccc(CP(=O)(O)OCCCC)n1 [Compound 6, [6-(Hydroxy-butoxy-phosphorylmethyl)-pyridin-2-ylmethyl]-phosphonic acid monobutyl ester], the solubility ([1]; <5% methanol, ethanol, or DMSO) was > 10 mM, the “adsorption in normal cells (HEK293)” value [2] was “adsorbed” and the “Adsorption HEK293” value [2] was “+++ (+++ = 41-60%)”. The “adsorption in carcinoma cell line Caco-2” value [3] was “adsorbed”, the “Adsorption Caco-2” value [3] was “+++ (+++ = 41-60%)” and the “adsorption in carcinoma cell line LNCaP” value [4] was “adsorbed”. The “Adsorption LNCaP” value [4] was “+++ (+++ = 41-60%)”.
In the case of CCOP(=O)(O)CNCCCN(CCCNCP(=O)(O)OCC)CP(=O)(O)OCC [Compound 20, [(Bis-{3-[(ethoxy-hydroxy-phosphorylmethyl)-amino]-propyl}-amino)-methyl]-phosphonic acid monoethyl ester], the solubility ([1]; <5% methanol, ethanol, or DMSO) is reported as > 10 mM, the “adsorption in normal cells (HEK293)” value [2] is reported as “adsorbed” and the “Adsorption HEK293” value [2] is reported as “++ (++ = 21-40%)”. For the same molecule, the “Adsorption Caco-2” value [3] was “++ (++ = 21-40%)”, the “adsorption in carcinoma cell line Caco-2” value ([3]; Caco-2) was “adsorbed” and the “adsorption in carcinoma cell line LNCaP” value [4] was “adsorbed”. For the same molecule, the “Adsorption LNCaP” value [4] was “++ (++ = 21-40%)”.
In the case of CCN(CC)Cc1c(C)c(CN(CC)CC)c(C)c(CN(CC)CC)c1C [Compound 17, (3,5-Bis-diethylaminomethyl-2,4,6-trimethyl-benzyl)-diethyl-amine], the solubility [1] is reported as < 10 mM.
With CCCCN(CCCC)Cc1c(C)c(CN(CCCC)CCCC)c(C)c(CN(CCCC)CCCC)c1C [Compound 18, (3,5-Bis-dibutylaminomethyl-2,4,6-trimethyl-benzyl)-dibutyl-amine] the solubility [1] was < 10 mM.
With COP(=O)(O)CNCCCN(CCCNCP(=O)(O)OC)CP(=O)(O)OC [Compound 19, [(Bis-{3-[(hydroxy-methoxy-phosphorylmethyl)-amino]-propyl}-amino)-methyl]-phosphonic acid monomethyl ester] the solubility ([1]; <5% methanol, ethanol, or DMSO) was > 10 mM, the “adsorption in normal cells (HEK293)” value [2] was “adsorbed” and the “Adsorption HEK293” value [2] was “++ (++ = 21-40%)”. The “Adsorption Caco-2” value [3] was “++ (++ = 21-40%)”, the “adsorption in carcinoma cell line Caco-2” value ([3]; Caco-2) was “adsorbed” and the “adsorption in carcinoma cell line LNCaP” value [4] was “adsorbed”. For the same molecule, the “Adsorption LNCaP” value [4] was “++ (++ = 21-40%)”.
In the case of CN(C)Cc1cc(CN(C)C)cc(CN(C)C)c1 [Compound 13, (3,5-Bis-dimethylaminomethyl-benzyl)-dimethylamine], the solubility ([1]; <5% methanol, ethanol, or DMSO) is reported as > 10 mM, the “Adsorption HEK293” value [2] is reported as 0 (0 = 0-10%) and the “Adsorption Caco-2” value [3] is reported as 0 (0 = 0-10%). For the same molecule, the “Adsorption LNCaP” value [4] was 0 (0 = 0-10%).
With CCCCN(CCCC)Cc1cc(CN(CCCC)CCCC)cc(CN(CCCC)CCCC)c1 [Compound 15, (3,5-Bis-dibutylaminomethyl-benzyl)-dibutyl-amine] the solubility [1] was < 10 mM.
